Earlier results, collected in publication PMC9465641 (Frontiers in Pharmacology, 2022).

Design: method as in Wang et al., 2021; Chen et al., 2022
Conditions: range reported previously; ref Wang et al., 2021; Chen et al., 2022; cited from earlier work

In the case of polymyxin B, the CL is listed as 1.59 to 2.86 L/h.
